# In patent US10512627B2, “Anti-tumor compound and the medical use thereof” (Tianjin Medical University Cancer Institute and Hospital, priority 2014, dated 2019):
# Columns and labels:
# Kunming mice = assay: Acute toxicity assay in mice, oral administration (Example 10); conditions: Kunming, mouse, in vivo, 14 days
# Protocol: (§1) The medium lethal dose of (S)2-(4′-methyl-3′-nitrobenzoylamino)-3-phenylpropionic acid via oral administration was tested by acute toxicity assay in mice.
# (§2) 1) Mice grouping: Kunming mice of clean grade, 10 weeks old, 30˜40 g body weight, 5 mice for each group, and all of the mice were males or females.
# (§3) 2) 3.2 g (S)2-(4′-methyl-3′-nitrobenzoylamino)-3-phenylpropionic acid was added to 8 mL solution of 3% sodium carboxymethylcellulose solution, and the mixture was homogenated for 5 min at 30000 rpm with a homogenizer. Each mouse undergone administration of intragastric infusion with 0.5 ml at a dosage of 5000 mg/kg. […] If the death number was […], the LD50 was regarded as more than 5000 mg/kg; if the death number equals to or was more than 3, the main experiments will be performed. The experiment was repeated for 3 times and the result was recorded as follows: […]
# [1] = as above; conditions: both sexes, mouse, in vivo, 5000 mg/kg; oral administration, Kunming mice
# Protocol: as §1, §2, §3
# Lewis lung cancer cells = assay: Lewis lung cancer metastasis model in mice (Example 8); type: in vivo, C57BL/6 mouse; conditions: 50, 25, 5 mg/kg intragastric, twice a day, 21 days; P<0.01
# Protocol: 5) A lung cancer model of mouse is established by subcutaneous inoculation of Lewis lung cancer cells in C57BL/6 mouse, because of the characteristic of Lewis lung cancer cell of specific metastasis toward the lung, and the ability of a drug for inhibiting the metastasis of the tumor cells may be determined by counting the number of the metastatic tumors on lung.
# The ability of (S)2-(4′-methyl-3′-nitrobenzoylamino)-3-phenylpropionic acid for inhibiting tumor metastasis in vivo was tested by Lewis lung cancer metastasis model in mice.
# 1) Mice grouping, C57BL/6 of SPF grade, 5 weeks old, 18˜22 g, 8 mice for each group. half male and half female;
# 2) The mother liquid of (S)2-(4′-methyl-3′-nitrobenzoylamino)-3-phenylpropionic acid for dosage form for oral administration was diluted with 1.5% CMC-Na solution to 5 mg/mL, 2.5 mg/mL, 0.5 mg/mL. The dosage for administration in mice was as follows, high dosage group of 50 mg/kg; Medium dosage group of 25 mg/kg; low dosage group of 5 mg/kg. The negative control was 1.5% CMC-Na solution; The positive control was 10 mg/mL of dosage form of 4-methyl-3-nitrobenzoic acid for oral administration, with dosage for administration of 100 mg/kg; […]
# 5) After the completion of the experiment, the mice were sacrificed and the lungs were made into paraffin tissue sections, then stained by HE and the number of tumors were counted under microscope;
# [2] = system: human breast cancer cell MDA-MB-231; assay: Scratch assay, migration of MDA-MB-231 (Example 3); type: cell-based; conditions: 0.5, 1, 2, 4 μmol/L, 0-24 h
# Protocol: The inhibiting ability of (S)2-(4′-methyl-3′-nitrobenzoylamino)-3-phenylpropionic acid for the migration of human breast cancer cell MDA-MB-231 was tested by scratch assay.
# The MDA-MB-231 cells in logarithmic growth phase were plated in the 6-well plate with the density of 1×10^6/3 mL, and the drug was added after 12 h, with 100 μL per well. The final concentrations of (S)2-(4′-methyl-3′-nitrobenzoylamino)-3-phenylpropionic acid (TCI04) were 0.5, 1, 2, and 4 μmol/L, respectively. The negative control was 100 μL sterilized water with 2% DMSO and the positive control was 1 μmol/L 4-methyl-3-nitrobenzoic acid (TCI01). After 12 h, the culture medium was removed, and the plate was washed 3 times with PBS, and 3 ml culture medium without fetal bovine serum and 100 μL drug (concentration was the same as above) per well were added. 12 h later, 10 μL tips were used to scratch, and after washing 4 times with PBS, 3 ml culture medium without fetal bovine serum per well was added. The distance of cell migration was recorded every 3 h under the inverted microscope, and the photos were taken at 0 h and 24 h.
# [3] = Mice acute toxicity assay, intravenous administration (Example 9); conditions: both sexes, Kunming, mouse, in vivo, Bliss algorithm
# Protocol: The median lethal dose of (S)2-(4′-methyl-3′-nitrobenzoylamino)-3-phenylpropionic acid via intravenous administration was tested by mice acute toxicity assay.
# 1) Mice grouping, Kunming mice of clean grade, 10 weeks old, 30˜40 g body weight, 10 mice for each group, half male and half female.
# 2) 10 groups in total, concentration distance between groups was 0.88. Sterilized water was added to the mother liquid II for dosage form administrated by intravenous injection to formulate into the required concentration and 0.2 ml was intravenously injected for each mouse, following 14 days observation. The dosage of administration for each group and the death numbers were recorded as follows: […]
# MDA-MB-231 cells = assay: MTT assay, proliferation of MDA-MB-231 (Example 11); type: cell-based; conditions: Homo sapiens, 48 h
# Protocol: The half inhibitory concentration of (S)2-(4′-methyl-3′-nitrobenzoylamino)-3-phenylpropionic acid for MDA-MB-231 cells was tested by MTT assay.
# 2) 5 mg/mL MTT solution was prepared with sterilized PBS, filtered with 0.22 um film, and then diluted with medium to 1 mg/mL. The medium in the 96-well plate was discarded, and 100 μL 1 mg/mL MTT working solution was add, followed by continuous culturing for 5 h.
# 3) MTT working solution was discarded, and 150 μL DMSO was added to each well (note: to away from light), and then the plate was shaken on the horizontal shaker at 170 rpm for 10 min, followed by detecting the absorbance at 490 nm with microplate reader.
structure (smiles),measurement,setting,value
Cc1ccc(C(=O)N[C@@H](Cc2ccccc2)C(=O)O)cc1[N+](=O)[O-] [(S)2-(4′-methyl-3′-nitrobenzoylamino)-3-phenylpropionic acid],"Death number, Female mice, The first test",Kunming mice; female,2
same,"Death number, Female mice, The second test",Kunming mice; female,2
same,"Death number, Female mice, The third test",Kunming mice; female,1
same,"Death number, Male mice, The first test",Kunming mice; male,2
same,"Death number, Male mice, The second test",Kunming mice; male,1
same,"Death number, Male mice, The third test",Kunming mice; male,1
same,LD50 at 14 days,[1],> 5000 mg/kg
same,number of the tumors on the lungs compared with the negative control,Lewis lung cancer cells,very significant difference
same,inhibition of migration ability (coalescence speed of cell scratch vs negative control),[2],significantly inhibited
same,LD50 at 14 days,[3]; read-out: LD50,269 mg/kg
same,LD50 at 14 days,[3]; read-out: LD50 95% confidence limits,249 to 291 mg/kg
same,IC50,MDA-MB-231 cells,2450 µM
